The values below come from patent US9975910B2, “Hetero-fused cyclic compound” (Eisai R&D Management Co., Ltd., priority 2013, dated 2018).

Data set [1] relates to C. albicans CAF2-1 strains. In words: Anticandidal activity (MIC measurement). The class given is cell-based. The conditions noted are these: for MIC: Candida albicans, CAF21STRAINS; for Anticandidal activity compared with amphotericin B: result in words. As to the method: The anticandidal activity of Reference Examples 1, 2, and 3 and Comparative Examples 1, 2, and 3 produced using Examples and amphotericin B was measured as follows.
C. albicans CAF2-1 strains were subjected to static culture in a Sabouraud dextrose liquid culture medium (SDB) at 30° C. for 48 hours; and the bacterial suspension was diluted with an RPMI1640 culture medium to prepare a 1.2×10^3 cells/mL bacterial suspension.
The diluted solutions of eight test compounds in plates (A to H) were prepared using a U-bottomed 96-well plate. 10 μL of a dimethyl sulfoxide solution was poured into columns 2 to 12 of the individual plates. The weighed test compounds were separately dissolved in dimethyl sulfoxide to prepare 2.5 mg/mL solutions; then, these solutions (20 μL) were placed in column 1 of the prepared plates, and were subjected to two-fold serial dilution in 12 steps on the plates (10 μL of solution+10 μL of dimethyl sulfoxide solution). The diluted solutions of the test compounds each were placed in a flat-bottomed 96-well plate for MIC measurement in an amount of 1 μL to prepare plates of the diluted test compound.
The bacterial suspension prepared in (1) (99 μL/well) was inoculated into the flat-bottomed 96-well plate containing the diluted solutions of the test compounds (1 μL/well) prepared in (2), and was subjected to static culture at 35° C. for 42 to 48 hours under an aerobic condition.

Data set [2] is described as follows: Evaluation on lipid solubility: distribution ratio (D) of 1-octanol to water by ODS column HPLC. Format: physicochemical. The conditions noted are these: 1-octanol/water, pH 6.8, from HPLC retention on ODS column. As to the method:
A parameter of lipid solubility, i.e., a distribution ratio (D) of a 1-octanol to water (pH: 6.8) was determined with an ODS (silica gel having a surface modified with an octadecylsilyl group) column by the following method.
The mobile phase shown in Table 2 was added to sodium nitrate (to marker) and six standard substances having known partition coefficients shown in Table 2 to prepare mixed solutions each containing 5 μg/mL sodium nitrate and a 10 μg/mL or 10 μL/mL standard substance; these mixed solutions were used as standard solutions. The mobile phase shown in Table 3 was added to a sample, the concentration was adjusted to 0.1 mM to prepare a sample solution. HPLC analysis of the standard solutions and the sample solution was performed on the following conditions, and the retention times (tr) of the standard substances and the sample were measured. From the retention factor (kstd) determined from the partition coefficient (log P) of the standard substance and Expression I, the regression coefficient (a) and the constant term (b) in Expression II were determined; using Expression III, the partition coefficient (log D) at a pH of 6.8 was calculated from the retention factor (ksmpt) of the sample; finally, the distribution ratio (D) of 1-octanol to water (pH: 6.8) was obtained.
Reference: Exploring QSAR-Hydrophobic, and Steric Constants, Corwin Hansch, Albert Leo, and David Hoekman, ACS Professional Reference Book k=(tr−t0)/t0 Expression I log P=a×log kstd+b Expression II log D=a×log ksmp+b Expression III (2) Measurement Conditions

Data set [3] can be described thus: Evaluation on solubility (HPLC-UV, phosphate-buffered saline). Format: physicochemical. As to conditions: for solubility: aqueous buffer, kinetic from dmso stock, Dulbecco's phosphate-buffered saline pH 7 (GIBCO), room temperature, about 15 minutes shaking; for Solubility compared with Comparative Example 1 and Comparative Example 2: phosphate-buffered saline pH 7, result in words. The protocol: The supernatant was then separated through vacuum filtration operation. A dimethyl sulfoxide solution (sample concentration: 100 μM) was used as a standard solution, and the sample concentration in the supernatant determined by an HPLC-UV method was defined as solubility. Test solution: pH of 7, GIBCO™ (Dulbecco's phosphate-buffered saline, Invitrogen Corporation)

A short description of data set [4]: Metabolic stability of pooled human liver microsomes. The class given is in vitro ADME. The conditions noted are these: for Residual rate of unchanged substance (%): 0.3 μM compound, 0.2 mg/mL microsomes, 37° C., NADPH; for microsomal CLint at 0.3 μM: ke/(concentration of pooled human liver microsomes), read-out: Hepatic intrinsic clearance; for Clearance of human liver microsomes compared with the respective Comparative Example: result in words. The protocol: Evaluations on the metabolic stability of human liver microsomes prepared in Reference Examples 1 and 2 and Comparative Examples 1 and 2 produced using Examples were performed as follows.
A test compound was added to an enzyme solution (pooled human liver microsomes (0.2 mg/mL), 100 mM Kpi, containing 0.1 mM EDTA), and was incubated in the presence of a coenzyme for a predetermined time at 37° C. The final concentration of the test compound was 0.3 μM. As the coenzyme, an NADPH-generating system (solution in which 60 mM MgCl2 solution containing 3.6 mM β-NADP^+, 90 mM glucose-6-phosphate, and 1 Unit/mL glucose-6-phosphate dehydrogenated enzyme was incubated at 37° C. for 5 minutes to generate NADPH) was used. After pre-incubation, part of the reaction solution was extracted; a double amount of a mixed solution of acetonitrile and methanol (7:3, containing 1.0 μM Propranolol as an internal standard substance) was added to terminate the reaction, and the concentration of the unchanged substance in the reaction solution was measured by LC-MS/MS. Based on the peak area of the unchanged substance obtained, the residual rate (%) of the unchanged substance was calculated wherein the residual rate at 0 min (incubation time) was 100%. Namely, the inclination of the straight line obtained when the value obtained by natural logarithmic conversion of the residual rate of the unchanged substance after a predetermined reaction time was plotted as the ordinate, and the reaction time was plotted as the abscissa was defined as an elimination rate constant (ke). Based on the obtained elimination rate constant ke, the hepatic intrinsic clearance of the test compound was calculated with the following expression: Hepatic intrinsic clearance (mL/min/mg protein)=ke/(concentration of pooled human liver microsomes: mg protein/mL)

For data set [5] the following is noted: standard substances, known values (Hansch, Leo, Hoekman); cited from earlier work.
[6] abbreviates: RPMI1640, 35° C., 42 to 48 hours, visually determined.

≈ marks a conversion by molar mass, not a printed value.

`C[C@@H]1[C@H](O)[C@@H](C)/C=C/C=C/C=C/C=C/C=C/C=C/C=C/[C@H](O[C@@H]2O[C@H](C)[C@@H](O)[C@H](N)[C@@H]2O)C[C@@H]2O[C@](O)(C[C@@H](O)C[C@@H](O)[C@H](O)CC[C@@H](O)C[C@@H](O)CC(=O)O[C@H]1C)C[C@H](O)[C@H]2C(=O)O` [Amphotericin B]: the “Anticandidal activity (MIC)” value in data set [1] (setting [6]) was determined as 1.6 µg/mL.
For `Cc1cc(Cc2ccc(CNC(=O)c3ccc(N)nc3N)cc2)sc1C` [Comparative Example 1, 2,6-Diamino-N-({4-[(4,5-dimethylthiophen-2-yl)methyl]phenyl}methyl)-pyridine-3-carboxamide, reference compound], the chromatographic logD (commonly a lipophilicity value derived from retention on a column) in data set [2] is 3.27. In addition, in data set [3], the solubility – broadly, the concentration that dissolves in the medium under given conditions – was found to be 0.2 µM (≈ 0.0733 µg/mL). Besides, the “Residual rate of unchanged substance (%)” value in data set [4] (After 0 min (defined as 100%)) is listed as 100.0%; in data set [4] (After 15 min), 93.1%; in data set [4] (After 30 min) it was 77.0%; in data set [4] (After 60 min), 56.2%. For the same compound, the microsomal CLint at 0.3 μM in data set [4] is 50 µL/min/mg. In addition, in data set [1] (setting [6]), the MIC (commonly the lowest concentration that inhibits growth of the organism) is 0.13 µg/mL (≈ 0.355 µM). For the same compound, the “Anticandidal activity compared with amphotericin B” value in data set [1] is on record as “strong anticandidal activity equal to that of amphotericin B”.
`Cc1nc(N)c(C(=O)NCc2ccc(COc3ccccn3)cc2)nc1C` [Comparative Example 2, 3-Amino-5,6-dimethyl-N-({4-[(pyridin-2-yloxy)methyl]phenyl}methyl)pyrazine-2-carboxamide, reference compound]: the chromatographic logD in data set [2] was 3.26. Further, the solubility in data set [3] came out at 0.9 µM (≈ 0.327 µg/mL). Also, the “Residual rate of unchanged substance (%)” value in data set [4] (After 0 min (defined as 100%)) amounted to 100.0%; in data set [4] (After 15 min), 73.0%; in data set [4] (After 30 min) it was 53.7%; in data set [4] (After 60 min) it was 30.9%. The microsomal CLint at 0.3 μM in data set [4] amounted to 98 µL/min/mg. Besides, in data set [1] (setting [6]), the MIC was found to be 0.063 µg/mL (≈ 0.173 µM). The “Anticandidal activity compared with amphotericin B” value in data set [1] is “strong anticandidal activity equal to that of amphotericin B”.
Regarding `Cc1cc(C(=O)NCc2ccc(OCc3ccccc3)cc2)c(N)nc1C` [Comparative Example 3, 2-Amino-N-(4-(benzyloxy)benzyl)-5,6-dimethylnicotinamide, reference compound], the chromatographic logD in data set [2] was 3.41. For the same compound, the “Residual rate of unchanged substance (%)” value in data set [4] (After 0 min (defined as 100%)) is 100.0%; in data set [4] (After 15 min), 65.0%. The microsomal CLint at 0.3 μM in data set [4] turned out to be 150 µL/min/mg. In data set [1] (setting [6]), this compound displayed an MIC of 0.13 µg/mL (≈ 0.36 µM). In addition, the “Anticandidal activity compared with amphotericin B” value in data set [1] is “strong anticandidal activity equal to that of amphotericin B”.
For `Nc1ccc(C(=O)NCc2ccc(Cc3cc4c(s3)COC4)cc2)c(N)n1` [Reference Example 1], the chromatographic logD in data set [2] was 2.15. This compound registered a solubility in data set [3] of 13.9 µM (≈ 5.29 µg/mL). Further, in data set [3], the “Solubility compared with Comparative Example 1 and Comparative Example 2” value was “higher”. Also, the “Residual rate of unchanged substance (%)” value in data set [4] (After 0 min (defined as 100%)) came out at 100.0%; in data set [4] (After 15 min), 83.6%; in data set [4] (After 30 min), 75.9%; in data set [4] (After 60 min), 61.4%. Also, in data set [4], the microsomal CLint at 0.3 μM is 39 µL/min/mg. In addition, the “Clearance of human liver microsomes compared with the respective Comparative Example” value in data set [4] was “improved”. The MIC in data set [1] (setting [6]) worked out at 0.25 µg/mL (≈ 0.657 µM). Besides, in data set [1], the “Anticandidal activity compared with amphotericin B” value is given as “strong anticandidal activity equal to that of amphotericin B”.
As for `Nc1nc2c(nc1C(=O)NCc1ccc(COc3ccccn3)cc1)COC2` [Reference Example 2, 5-Amino-N-({4-[(pyridin-2-yloxy)methyl]phenyl}methyl)-1,3-dihydrofuro[3,4-b]pyrazine-6-carboxamide], the chromatographic logD in data set [2] is 2.72. This compound showed a solubility in data set [3] of 2.1 µM (≈ 0.793 µg/mL). Besides, the “Solubility compared with Comparative Example 1 and Comparative Example 2” value in data set [3] is recorded as “higher”. Further, the “Residual rate of unchanged substance (%)” value was 100.0% in data set [4] (After 0 min (defined as 100%)), 87.0% in data set [4] (After 15 min), 77.6% in data set [4] (After 30 min) and 65.4% in data set [4] (After 60 min). Besides, the microsomal CLint at 0.3 μM in data set [4] was 35 µL/min/mg. In addition, the “Clearance of human liver microsomes compared with the respective Comparative Example” value in data set [4] is “improved”. In data set [1] (setting [6]), this compound showed an MIC of 0.5 µg/mL (≈ 1.32 µM). In data set [1], the “Anticandidal activity compared with amphotericin B” value is recorded as “strong anticandidal activity equal to that of amphotericin B”.
For the compound `Nc1nc2c(cc1C(=O)NCc1ccc(OCc3ccccc3)cc1)COC2` [Reference Example 3], in data set [2], the chromatographic logD was 2.72. Moreover, in data set [4] (After 0 min (defined as 100%)), the “Residual rate of unchanged substance (%)” value is on record as 100.0%. In addition, the “Residual rate of unchanged substance (%)” value in data set [4] (After 15 min) is listed as 78.0%. Moreover, in data set [4], the microsomal CLint at 0.3 μM worked out at 82 µL/min/mg and the “Clearance of human liver microsomes compared with the respective Comparative Example” value is listed as “improved”. Besides, the MIC in data set [1] (setting [6]) was 2 µg/mL (≈ 5.33 µM). For the same compound, the “Anticandidal activity compared with amphotericin B” value in data set [1] is “strong anticandidal activity equal to that of amphotericin B”.
Regarding `CCCCc1ccccc1` [n-Butylbenzene], the “Partition coefficient (logP)” value in data set [5] was 4.38.
